Laboratory results from PMC8592419 (PLoS ONE, 2021).
Converted amounts (≈) assume the structure as drawn. One block for each molecule: values may come before it. Where a SMILES comes first, the peptide text is derived from it.

How the values were obtained:
Mab ATCC19977 strain = assay type: cell-based, Mycobacterium abscessus
Method: Briefly, serial dilutions of the AMPs were prepared with potassium phosphate buffer (PPB) from the concentration range of 3.125 to 400 μg/ml and then 50 μl of each dilution were added to each 96-well plate. Colonies of the isolate were suspended and then further diluted in Mueller-Hinton broth to obtain a final concentration of 1×10^3 CFU/ml (optimized according to the available AMP stock concentration). Fifty microliters of this inoculum were added to each well of the plates. The plates were incubated for 3 days at 37°C. Plain media and bacterial suspensions without AMPs were used as negative and positive controls. The MIC values were read and recorded. All assays were performed in duplicate and two independent experiments.

[1] = not given; remark: listed apart in the source
[2] = test system: M. abscessus clinical isolate MAB05; assay: In vitro susceptibility testing (DST), CLSI broth microdilution; assay type: cell-based, M. abscessus subsp. abscessus; parameters: key to DST profile, interpretation, Day 3 / DST profile, interpretation, Day 5 / DST profile, interpretation, Day 14: S, susceptible; I, intermediate; R, resistant
Method: (§1) Drug susceptibility testing (DST) was performed according to the Clinical and Laboratory Standards Institute (CLSI) guidelines M24-A2 [42] using the broth microdilution method to determine the minimum inhibitory concentration (MIC). […] Colonies were grown at an adjusted cell density to a 0.5 McFarland standard and further diluted to 5×10^5 CFU/ml. […] These were then incubated at 37°C for 3, 5 and 14 days. The MIC was defined as the concentration in which no visible growth was observed. The results were interpreted according to the guidelines of CLSI. Inducible resistance was inferred by changes in MIC values from being susceptible at day 3 to resistant at day 14.

[3] = test system: M. abscessus clinical isolate MAB10; assay: as above; assay type: cell-based, M. abscessus subsp. abscessus; parameters: key to DST profile, interpretation, Day 3 / DST profile, interpretation, Day 5 / DST profile, interpretation, Day 14: S, susceptible; I, intermediate; R, resistant
Method: as §1

[4] = test system: M. abscessus clinical isolate MAB11; assay: as above; assay type: cell-based, M. abscessus subsp. abscessus; parameters: key to DST profile, interpretation, Day 3 / DST profile, interpretation, Day 5 / DST profile, interpretation, Day 14: S, susceptible; I, intermediate; R, resistant
Method: as §1

[5] = test system: M. abscessus clinical isolate MAB07; assay: as above; assay type: cell-based, M. abscessus subsp. abscessus; parameters: key to DST profile, interpretation, Day 3 / DST profile, interpretation, Day 5 / DST profile, interpretation, Day 14: S, susceptible; I, intermediate; R, resistant
Method: as §1

[6] = test system: M. abscessus clinical isolate MAB06; assay: as above; assay type: cell-based, M. abscessus subsp. abscessus; parameters: key to DST profile, interpretation, Day 3 / DST profile, interpretation, Day 5 / DST profile, interpretation, Day 14: S, susceptible; I, intermediate; R, resistant
Method: as §1

[7] = test system: M. abscessus clinical isolate MAB02; assay: as above; assay type: cell-based, M. abscessus subsp. abscessus; parameters: key to DST profile, interpretation, Day 3 / DST profile, interpretation, Day 5 / DST profile, interpretation, Day 14: S, susceptible; I, intermediate; R, resistant
Method: as §1

[8] = test system: M. abscessus clinical isolate MAB04; assay: as above; assay type: cell-based, M. abscessus subsp. abscessus; parameters: key to DST profile, interpretation, Day 3 / DST profile, interpretation, Day 5 / DST profile, interpretation, Day 14: S, susceptible; I, intermediate; R, resistant
Method: as §1

[9] = test system: M. abscessus clinical isolate MAB08; assay: as above; assay type: cell-based, M. abscessus subsp. abscessus; parameters: key to DST profile, interpretation, Day 3 / DST profile, interpretation, Day 5 / DST profile, interpretation, Day 14: S, susceptible; I, intermediate; R, resistant
Method: as §1

[10] = test system: M. abscessus clinical isolate MAB01; assay: as above; assay type: cell-based, M. abscessus subsp. abscessus; parameters: key to DST profile, interpretation, Day 3 / DST profile, interpretation, Day 5 / DST profile, interpretation, Day 14: S, susceptible; I, intermediate; R, resistant
Method: as §1

[11] = test system: M. abscessus clinical isolate MAB03; assay: as above; assay type: cell-based, M. abscessus subsp. abscessus; parameters: key to DST profile, interpretation, Day 3 / DST profile, interpretation, Day 5 / DST profile, interpretation, Day 14: S, susceptible; I, intermediate; R, resistant
Method: as §1

[12] = test system: M. abscessus clinical isolate MAB09; assay: as above; assay type: cell-based, M. abscessus subsp. abscessus; parameters: key to DST profile, interpretation, Day 3 / DST profile, interpretation, Day 5 / DST profile, interpretation, Day 14: S, susceptible; I, intermediate; R, resistant
Method: as §1

[13] = test system: M. abscessus clinical isolate MAB15; assay: as above; assay type: cell-based, M. abscessus subsp. massiliense; parameters: key to DST profile, interpretation, Day 3 / DST profile, interpretation, Day 5 / DST profile, interpretation, Day 14: S, susceptible; I, intermediate; R, resistant
Method: as §1

[14] = test system: M. abscessus clinical isolate MAB14; assay: as above; assay type: cell-based, M. abscessus subsp. massiliense; parameters: key to DST profile, interpretation, Day 3 / DST profile, interpretation, Day 5 / DST profile, interpretation, Day 14: S, susceptible; I, intermediate; R, resistant
Method: as §1

[15] = test system: M. abscessus clinical isolate MAB13; assay: as above; assay type: cell-based, M. abscessus subsp. massiliense; parameters: key to DST profile, interpretation, Day 3 / DST profile, interpretation, Day 5 / DST profile, interpretation, Day 14: S, susceptible; I, intermediate; R, resistant
Method: as §1

[16] = test system: M. abscessus clinical isolate MAB12; assay: as above; assay type: cell-based, M. abscessus subsp. massiliense; parameters: key to DST profile, interpretation, Day 3 / DST profile, interpretation, Day 5 / DST profile, interpretation, Day 14: S, susceptible; I, intermediate; R, resistant
Method: as §1

[17] = test system: M. abscessus clinical isolate MAB16; assay: as above; assay type: cell-based, M. abscessus subsp. massiliense; parameters: key to DST profile, interpretation, Day 3 / DST profile, interpretation, Day 5 / DST profile, interpretation, Day 14: S, susceptible; I, intermediate; R, resistant
Method: as §1

[18] = Mycobacteroides abscessus, 120 h, day 5, read-out: DST profile, MIC value, Day 5

Compound: CC(C)[C@H](NC(=O)[C@@H](NC(=O)[C@H](CO)NC(=O)CNC(=O)[C@@H](NC(=O)[C@H](C)NC(=O)CN)C(C)C)C(C)C)C(=O)O [Pug-2] (H-GAVGSVV-OH)
- MIC values (Mab ATCC19977 strain): >400 µg/mL

Compound: CC(C)C[C@H](NC(=O)[C@H](Cc1ccccc1)NC(=O)[C@H](CO)NC(=O)[C@@H]1CCCN1C(=O)[C@@H](N)Cc1ccccc1)C(=O)N[C@H](C(=O)NCC(=O)N[C@@H](CCCNC(=N)N)C(=O)O)C(C)C [Pug-4] (H-FPSFLVGR-OH)
- MIC values (Mab ATCC19977 strain): >400 µg/mL

Compound: CC(C)C[C@H](NC(=O)[C@H](CCCCN)NC(=O)[C@H](CC(C)C)NC(=O)[C@@H](N)CC(C)C)C(=O)N[C@@H](Cc1ccccc1)C(=O)N[C@@H](Cc1ccccc1)C(=O)N1CCC[C@H]1C(=O)N[C@@H](Cc1ccccc1)C(=O)N[C@@H](CC(C)C)C(=O)N[C@@H](CCC(=O)O)C(=O)N[C@H](C(=O)NCC(=O)N[C@@H](CCC(=O)O)C(=O)O)[C@@H](C)O [Pug-1] (H-LLKLFFPFLETGE-OH)
- MIC values (Mab ATCC19977 strain): >400 µg/mL

Compound: CC[C@H](C)[C@H](NC(=O)[C@H](CCCCN)NC(=O)[C@H](CCCNC(=N)N)NC(=O)CNC(=O)[C@H](CC(C)C)NC(=O)[C@H](CO)NC(=O)[C@H](CCCNC(=N)N)NC(=O)[C@H](CC(C)C)NC(=O)CNC(=O)CN)C(=O)N[C@@H](CC(C)C)C(=O)N[C@@H](CCCNC(=N)N)C(=O)N[C@@H](C)C(=O)N[C@@H](Cc1c[nH]c2ccccc12)C(=O)N[C@@H](CCCCN)C(=O)N[C@@H](CCCCN)C(=O)O [S62] (H-GGLRSLGRKILRAWKK-OH)
- MIC after 3 days, MAB01 and MAB03: < 50 µg/mL
- MIC within 24 h, majority of isolates (10/16) [1]: < 50 µg/mL
- MIC values (Mab ATCC19977 strain): 200 µg/mL (≈ 109 µM)

Compound: CC(C)C[C@H](N)C(=O)NCC(=O)N[C@H](C(=O)N[C@@H](Cc1ccc(O)cc1)C(=O)O)[C@@H](C)O [Pug-3] (H-LGTY-OH)
- MIC values (Mab ATCC19977 strain): >400 µg/mL

- MIC [2, 18]: 32 µg/mL (≈ 54.6 µM)
- MIC [3, 18]: 64 µg/mL (≈ 109 µM)
- MIC [4, 18]: 16 µg/mL (≈ 27.3 µM)
- MIC [5, 18]: 8 µg/mL (≈ 13.7 µM)
- MIC [6, 18]: 8 µg/mL (≈ 13.7 µM)
- MIC [7, 18]: 8 µg/mL (≈ 13.7 µM)
- MIC [8, 18]: 8 µg/mL (≈ 13.7 µM)
- MIC [9, 18]: 8 µg/mL (≈ 13.7 µM)
- MIC [10, 18]: 64 µg/mL (≈ 109 µM)
- MIC [11, 18]: 4 µg/mL (≈ 6.83 µM)
- MIC [12, 18]: 8 µg/mL (≈ 13.7 µM)
- MIC [13, 18]: 8 µg/mL (≈ 13.7 µM)
- MIC [14, 18]: 64 µg/mL (≈ 109 µM)
- MIC [15, 18]: 8 µg/mL (≈ 13.7 µM)
- MIC [16, 18]: 8 µg/mL (≈ 13.7 µM)
- MIC [17, 18]: 32 µg/mL (≈ 54.6 µM)
Compound: NCC[C@H](O)C(=O)N[C@@H]1C[C@H](N)[C@@H](O[C@H]2O[C@H](CN)[C@@H](O)[C@H](O)[C@H]2O)[C@H](O)[C@H]1O[C@H]1O[C@H](CO)[C@@H](O)[C@H](N)[C@H]1O [AMK, Amikacin]
- DST profile, interpretation, Day 5 ([2]; day 5, CLSI interpretation): I
- DST profile, interpretation, Day 5 ([3]; day 5, CLSI interpretation): R
- DST profile, interpretation, Day 5 ([4]; day 5, CLSI interpretation): S
- DST profile, interpretation, Day 5 ([5]; day 5, CLSI interpretation): S
- DST profile, interpretation, Day 5 ([6]; day 5, CLSI interpretation): S
- DST profile, interpretation, Day 5 ([7]; day 5, CLSI interpretation): S
- DST profile, interpretation, Day 5 ([8]; day 5, CLSI interpretation): S
- DST profile, interpretation, Day 5 ([9]; day 5, CLSI interpretation): S
- DST profile, interpretation, Day 5 ([10]; day 5, CLSI interpretation): R
- DST profile, interpretation, Day 5 ([11]; day 5, CLSI interpretation): S
- DST profile, interpretation, Day 5 ([12]; day 5, CLSI interpretation): S
- DST profile, interpretation, Day 5 ([13]; day 5, CLSI interpretation): S
- DST profile, interpretation, Day 5 ([14]; day 5, CLSI interpretation): R
- DST profile, interpretation, Day 5 ([15]; day 5, CLSI interpretation): S
- DST profile, interpretation, Day 5 ([16]; day 5, CLSI interpretation): S
- DST profile, interpretation, Day 5 ([17]; day 5, CLSI interpretation): I
